Test results reported in ChEMBL document CHEMBL4825709 (J Med Chem, 2021).
In brackets after ≈: the same amount, converted by molar mass.

Assay: Clearance in Wistar Han rat at 1 mg/kg, iv measured up to 24 hrs by LC-MS/MS analysis
Format: ADME, organism-based
Conditions: in vivo

`CNC(=O)[C@H](C1CCOCC1)N(CC(c1ccccc1)c1ccccn1)C(=O)c1cc(C)c(=O)n(C)c1` (stereo in doubt) showed a clearance of 50 mL/min/kg.

Assay: physchem
Conditions: FaSSIF, pH 6.5

Going from `CNC(=O)C(C(C)C)N(CC(c1ccccc1)c1ccccc1)C(=O)c1cc(C)c(=O)n(C)c1` (stereo not drawn) to `CNC(=O)C(N(CC(c1ccccc1)c1ccccc1)C(=O)c1cc(C)c(=O)n(C)c1)C(C)(C)C` (stereo not drawn), the solubility at 16 h falls from 60 µg/mL (≈ 131 µM) to 2 µg/mL (≈ 4.22 µM) (30-fold).

First: Cc1cc(C(=O)N(CC(c2ccccc2)c2ccccc2)C(C)C2CCCO2)cn(C)c1=O (stereo not drawn)
Second: Cc1cc(C(=O)N(CC(c2ccccc2)c2ccccc2)C(C)C#N)cn(C)c1=O (stereo not drawn)
The solubility at 16 h of the first is 1.6-fold higher: 21 µg/mL (≈ 47.2 µM) for the first, 13 µg/mL (≈ 32.5 µM) for the second.

Going from `CCC(C(=O)NC)N(CC(c1ccccc1)c1ccccc1)C(=O)c1cc(C)c(=O)n(C)c1` (stereo not drawn) to `CNC(=O)C(C1CC1)N(CC(c1ccccc1)c1ccccc1)C(=O)c1cc(C)c(=O)n(C)c1` (stereo not drawn), the solubility at 16 h falls from 150 µg/mL (≈ 337 µM) to 30 µg/mL (≈ 65.6 µM) (5-fold).

Going from `CNC(=O)C1(N(CC(c2ccccc2)c2ccccc2)C(=O)c2cc(C)c(=O)n(C)c2)CCCC1` to `CNC(=O)C1(N(CC(c2ccccc2)c2ccccc2)C(=O)c2cc(C)c(=O)n(C)c2)CC1`, the solubility at 16 h rises from 132 µg/mL (≈ 280 µM) to 819 µg/mL (≈ 1850 µM) (6.2-fold).

`CNC(=O)C(C)N(CC(c1ccccc1)c1ccccc1)C(=O)c1cc(OC)c(=O)n(C)c1` (stereo not drawn) and `CNC(=O)C(C1CCOC1)N(CC(c1ccccc1)c1ccccc1)C(=O)c1cc(C)c(=O)n(C)c1` (stereo in doubt; 21) are within 1.5-fold of each other in solubility at 16 h: 661 µg/mL (≈ 1480 µM) for the first, 987 µg/mL (≈ 2020 µM) for the second.

`Cc1cc(C(=O)N(CC(c2ccccc2)c2ccccc2)C(C)CN2CCOCC2)cn(C)c1=O` (stereo not drawn) and `COCC(COC)N(CC(c1ccccc1)c1ccccc1)C(=O)c1cc(C)c(=O)n(C)c1` are within 1.5-fold of each other in solubility at 16 h: 91 µg/mL (≈ 192 µM) for the first, 78 µg/mL (≈ 174 µM) for the second.

For `CNC(=O)[C@H](C1CCOCC1)N(CC(c1ccccc1)c1ccccn1)C(=O)c1cc(C)c(=O)n(C)c1` (stereo in doubt), the solubility at 16 h was over 1000 µg/mL.

Assay: Volume of distribution at steady state in Wistar Han rat at 1 mg/kg, iv measured up to 24 hrs by LC-MS/MS analysis
Format: ADME, organism-based
Conditions: in vivo, read-out: Vdss

In the case of `CNC(=O)[C@H](C1CCOCC1)N(CC(c1ccccc1)c1ccccn1)C(=O)c1cc(C)c(=O)n(C)c1` (stereo in doubt), the Vd is reported as 0.6 L/kg.

Assay: AUC (0 to infinity) in Wistar Han rat at 1 mg/kg, iv measured up to 24 hrs by LC-MS/MS analysis
Format: ADME, organism-based
Parameters: route intravenous, dose 1 mg/kg, time <=24
Conditions: in vivo

For `CNC(=O)[C@H](C1CCOCC1)N(CC(c1ccccc1)c1ccccn1)C(=O)c1cc(C)c(=O)n(C)c1` (stereo in doubt), the AUC(0-inf) was 340 ng·h/mL.

Assay: Intrinsic clearance in rat hepatocytes at 0.5 uM measured after 60 mins by LC-MS/MS analysis
Format: ADME, cell-based, Hepatocyte
Conditions: 1 h

For `CNC(=O)[C@H](C1CCOCC1)N(CC(c1ccccc1)c1ccccn1)C(=O)c1cc(C)c(=O)n(C)c1` (stereo in doubt), the CLH was 3.13 mL/min/g.

Assay: AUC (0 to infinity) in Wistar Han rat at 3 mg/kg, po measured up to 24 hrs by LC-MS/MS analysis
Format: ADME, organism-based
Parameters: route oral, dose 3 mg/kg, time <=24
Conditions: in vivo

In the case of `CNC(=O)[C@H](C1CCOCC1)N(CC(c1ccccc1)c1ccccn1)C(=O)c1cc(C)c(=O)n(C)c1` (stereo in doubt), the AUC(0-inf) is reported as 162 ng·h/mL.

Assay: physchem
Conditions: buffer, pH 7.4, logD

In order of falling logD:
1. COCC(COC)N(CC(c1ccccc1)c1ccccc1)C(=O)c1cc(C)c(=O)n(C)c1  5.5
2. CNC(=O)C(N(CC(c1ccccc1)c1ccccc1)C(=O)c1cc(C)c(=O)n(C)c1)C(C)(C)C (stereo not drawn)  5.4
3. Cc1cc(C(=O)N(CC(c2ccccc2)c2ccccc2)C(C)CN2CCOCC2)cn(C)c1=O (stereo not drawn)  5.4
4. Cc1cc(C(=O)N(CC(c2ccccc2)c2ccccc2)C(C)C2CCCO2)cn(C)c1=O (stereo not drawn)  5.1
5. CNC(=O)C(C(C)C)N(CC(c1ccccc1)c1ccccc1)C(=O)c1cc(C)c(=O)n(C)c1 (stereo not drawn)  4.9
6. Cc1cc(C(=O)N(CC(c2ccccc2)c2ccccc2)C(C)C#N)cn(C)c1=O (stereo not drawn)  4.8
7. CNC(=O)C1(N(CC(c2ccccc2)c2ccccc2)C(=O)c2cc(C)c(=O)n(C)c2)CCCC1  4.7
8. CNC(=O)C(C1CC1)N(CC(c1ccccc1)c1ccccc1)C(=O)c1cc(C)c(=O)n(C)c1 (stereo not drawn)  4.4
9. CNC(=O)C1(N(CC(c2ccccc2)c2ccccc2)C(=O)c2cc(C)c(=O)n(C)c2)CC1  4.4
10. CCNC(=O)C(C)N(CC(c1ccccc1)c1ccccc1)C(=O)c1cc(C)c(=O)n(C)c1 (stereo not drawn)  4.3
11. CCC(C(=O)NC)N(CC(c1ccccc1)c1ccccc1)C(=O)c1cc(C)c(=O)n(C)c1 (stereo not drawn)  4.3
12. Cc1cc(C(=O)N(CCN2CCOCC2)CC(c2ccccc2)c2ccccc2)cn(C)c1=O  4.1
13. CNC(=O)C(C)(C)N(CC(c1ccccc1)c1ccccc1)C(=O)c1cc(C)c(=O)n(C)c1  3.7
14. CNC(=O)CN(CC(c1ccccc1)c1ccccc1)C(=O)c1cc(C)c(=O)n(C)c1  3.4
15. CNC(=O)CN(CC(c1ccccc1)C(C)C)C(=O)c1cc(C)c(=O)n(C)c1 (stereo not drawn)  3.3
16. CNC(=O)C(C)N(CC(c1ccccc1)c1ccccc1)C(=O)c1cc(OC)c(=O)n(C)c1 (stereo not drawn)  3.3
17. CNC(=O)C(C)N(CC(O)(c1ccccc1)c1ccccc1)C(=O)c1cc(C)c(=O)n(C)c1 (stereo not drawn)  2.9
18. Cc1cc(C(=O)N(CC(N)=O)CC(c2ccccc2)c2ccccc2)cn(C)c1=O  2.9
19. CCOC(CN(CC(=O)NC)C(=O)c1cc(C)c(=O)n(C)c1)c1ccccc1 (stereo not drawn)  2.7
20. CNC(=O)CN(CC(CC1CCOCC1)c1ccccc1)C(=O)c1cc(C)c(=O)n(C)c1 (stereo not drawn)  2.4
21. CNC(=O)C(C)N(CC(c1ccccc1)c1cccnc1)C(=O)c1cc(C)c(=O)n(C)c1 (stereo not drawn)  1.9
22. CNC(=O)C(C)N(CC(c1ccccc1)c1ccncc1)C(=O)c1cc(C)c(=O)n(C)c1 (stereo not drawn)  1.7
23. CNC(=O)CN(CC(c1ccccc1)n1ccnc1)C(=O)c1cc(C)c(=O)n(C)c1 (stereo not drawn)  1.45

Assay: Oral bioavailability in Wistar Han rat at 3 mg/kg measured up to 24 hrs by LC-MS/MS analysis
Format: ADME, organism-based
Conditions: in vivo

In the case of `CNC(=O)[C@H](C1CCOCC1)N(CC(c1ccccc1)c1ccccn1)C(=O)c1cc(C)c(=O)n(C)c1` (stereo in doubt), the bioavailability is reported as 16%.

Assay: not given
Conditions: buffer, pH 7.4

In the case of `CNC(=O)[C@H](C1CCOCC1)N(CC(c1ccccc1)c1ccccn1)C(=O)c1cc(C)c(=O)n(C)c1` (stereo in doubt), the logD is reported as 2.9.

Assay: Intrinsic clearance in dog hepatocytes at 0.5 uM measured after 120 mins by LC-MS/MS analysis
Format: ADME, cell-based, Canis lupus familiaris, Hepatocyte
Conditions: 2 h

Compound `CNC(=O)[C@H](C1CCOCC1)N(CC(c1ccccc1)c1ccccn1)C(=O)c1cc(C)c(=O)n(C)c1` (stereo in doubt) has a CLH of under 0.65 mL/min/g.

Assay: physchem
Conditions: not given

`CNC(=O)C(C(C)C)N(CC(c1ccccc1)c1ccccc1)C(=O)c1cc(C)c(=O)n(C)c1` (stereo not drawn) and `CNC(=O)C(N(CC(c1ccccc1)c1ccccc1)C(=O)c1cc(C)c(=O)n(C)c1)C(C)(C)C` (stereo not drawn) are within 1.5-fold of each other in solubility: 105 µg/mL (≈ 228 µM) for the first, 93 µg/mL (≈ 196 µM) for the second.

Going from `Cc1cc(C(=O)N(CC(c2ccccc2)c2ccccc2)C(C)C2CCCO2)cn(C)c1=O` (stereo not drawn) to `Cc1cc(C(=O)N(CC(c2ccccc2)c2ccccc2)C(C)C#N)cn(C)c1=O` (stereo not drawn), the solubility rises from 108 µg/mL (≈ 243 µM) to over 157 µg/mL.

Going from `CNC(=O)CN(CC(c1ccccc1)c1ccccc1)C(=O)c1cc(C)c(=O)n(C)c1` to `Cc1cc(C(=O)N(CC(N)=O)CC(c2ccccc2)c2ccccc2)cn(C)c1=O`, the solubility rises from 163 µg/mL (≈ 390 µM) to over 175 µg/mL.

`CNC(=O)C(C)N(CC(c1ccccc1)c1ccccc1)C(=O)c1cc(OC)c(=O)n(C)c1` (stereo not drawn) and `CNC(=O)C(C1CC1)N(CC(c1ccccc1)c1ccccc1)C(=O)c1cc(C)c(=O)n(C)c1` (stereo not drawn) are within 1.5-fold of each other in solubility: 111 µg/mL (≈ 248 µM) for the first, 91 µg/mL (≈ 199 µM) for the second.

`CNC(=O)C(C)(C)N(CC(c1ccccc1)c1ccccc1)C(=O)c1cc(C)c(=O)n(C)c1` and `CNC(=O)C1(N(CC(c2ccccc2)c2ccccc2)C(=O)c2cc(C)c(=O)n(C)c2)CC1` cannot be ordered by solubility: over 242 µg/mL for the first, over 194 µg/mL for the second.

`Cc1cc(C(=O)N(CCN2CCOCC2)CC(c2ccccc2)c2ccccc2)cn(C)c1=O` and `Cc1cc(C(=O)N(CC(c2ccccc2)c2ccccc2)C(C)CN2CCOCC2)cn(C)c1=O` (stereo not drawn) cannot be ordered by solubility: over 239 µg/mL for the first, over 206 µg/mL for the second.

In the case of `COCC(COC)N(CC(c1ccccc1)c1ccccc1)C(=O)c1cc(C)c(=O)n(C)c1`, the solubility is reported as over 186 µg/mL.

Assay: Half life in Wistar Han rat at 1 mg/kg, iv measured up to 24 hrs by LC-MS/MS analysis
Format: ADME, organism-based
Conditions: in vivo

`CNC(=O)[C@H](C1CCOCC1)N(CC(c1ccccc1)c1ccccn1)C(=O)c1cc(C)c(=O)n(C)c1` (stereo in doubt) gave a half-life of 11.4 min.

Assay: Intrinsic clearance in human hepatocytes at 0.5 uM measured after 120 mins by LC-MS/MS analysis
Format: ADME, cell-based, Hepatocyte
Conditions: 2 h

With `CNC(=O)[C@H](C1CCOCC1)N(CC(c1ccccc1)c1ccccn1)C(=O)c1cc(C)c(=O)n(C)c1` (stereo in doubt) the CLH was under 0.45 mL/min/g.

Assay: Tmax in Wistar Han rat at 3 mg/kg, po measured up to 24 hrs by LC-MS/MS analysis
Format: ADME, organism-based
Conditions: in vivo

Compound `CNC(=O)[C@H](C1CCOCC1)N(CC(c1ccccc1)c1ccccn1)C(=O)c1cc(C)c(=O)n(C)c1` (stereo in doubt) has a Tmax of 15 min.

Assay: Cmax in Wistar Han rat at 3 mg/kg, po measured up to 24 hrs by LC-MS/MS analysis
Format: ADME, organism-based
Parameters: route oral, dose 3 mg/kg, time <=24
Conditions: in vivo

`CNC(=O)[C@H](C1CCOCC1)N(CC(c1ccccc1)c1ccccn1)C(=O)c1cc(C)c(=O)n(C)c1` (stereo in doubt) gave a Cmax of 398 nM.

Assay: Solubility of compound in pH 7.4 by charged aerosol detection method
Format: physicochemical
Conditions: buffer

`CNC(=O)C(C1CCOC1)N(CC(c1ccccc1)c1ccccc1)C(=O)c1cc(C)c(=O)n(C)c1` (stereo in doubt; 21) showed a solubility of over 143 µg/mL.

Same assay, conditions: buffer, read-out: solubility

In the case of `CNC(=O)[C@H](C1CCOCC1)N(CC(c1ccccc1)c1ccccn1)C(=O)c1cc(C)c(=O)n(C)c1` (stereo in doubt), the solubility is reported as over 231 µg/mL.
